Laboratory results published in PubChem BioAssay (NCI).
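All cell lines were grown in 96-well plates and treated with compound for 48 hours. Abbreviation: GI50, concentration required for 50% inhibition of growth. Definition used: TGI = concentration required for complete inhibition of growth.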

Key:
Assay in all cases: NCI-60 cell line screen, 48 h
COLO 205 colon = tested on: COLO 205 colon
ACHN renal = tested on: ACHN renal
UO-31 renal = tested on: UO-31 renal
DMS 273 small cell lung = tested on: DMS 273 small cell lung
U251 CNS = tested on: U251 CNS
NCI-H23 lung = tested on: NCI-H23 lung
M14 melanoma = tested on: M14 melanoma
IGROV1 ovarian = tested on: IGROV1 ovarian
TK-10 renal = tested on: TK-10 renal
DMS 114 small cell lung = tested on: DMS 114 small cell lung
OVCAR-5 ovarian = tested on: OVCAR-5 ovarian
SR leukemia = tested on: SR leukemia
SNB-78 CNS = tested on: SNB-78 CNS
HOP-62 NSCLC = tested on: HOP-62 NSCLC
SW-620 colon = tested on: SW-620 colon
HCT-116 colon = tested on: HCT-116 colon
LOX IMVI melanoma = tested on: LOX IMVI melanoma
XF 498 CNS = tested on: XF 498 CNS
SK-MEL-5 melanoma = tested on: SK-MEL-5 melanoma
OVCAR-4 ovarian = tested on: OVCAR-4 ovarian
RXF 393 renal = tested on: RXF 393 renal
HL-60(TB) leukemia = tested on: HL-60(TB) leukemia
NCI-H226 lung = tested on: NCI-H226 lung
SF-295 CNS = tested on: SF-295 CNS
SNB-19 CNS = tested on: SNB-19 CNS
OVCAR-8 ovarian = tested on: OVCAR-8 ovarian
NCI-H460 lung = tested on: NCI-H460 lung
K-562 leukemia = tested on: K-562 leukemia
MOLT-4 leukemia = tested on: MOLT-4 leukemia
SNB-75 CNS = tested on: SNB-75 CNS
786-0 renal = tested on: 786-0 renal
MALME-3M melanoma = tested on: MALME-3M melanoma
OVCAR-3 ovarian = tested on: OVCAR-3 ovarian
NCI-H522 lung = tested on: NCI-H522 lung
CAKI-1 renal = tested on: CAKI-1 renal
HT29 colon = tested on: HT29 colon
HCT-15 colon = tested on: HCT-15 colon
KM20L2 colon = tested on: KM20L2 colon
SK-MEL-28 melanoma = tested on: SK-MEL-28 melanoma
UACC-62 melanoma = tested on: UACC-62 melanoma
SK-OV-3 ovarian = tested on: SK-OV-3 ovarian
HOP-92 NSCLC = tested on: HOP-92 NSCLC
DLD-1 colon = tested on: DLD-1 colon
RPMI-8226 leukemia = tested on: RPMI-8226 leukemia
SK-MEL-2 melanoma = tested on: SK-MEL-2 melanoma
SF-268 CNS = tested on: SF-268 CNS
A549 NSCLC = tested on: A549 NSCLC
HCC-2998 colon = tested on: HCC-2998 colon
UACC-257 melanoma = tested on: UACC-257 melanoma
M19-MEL melanoma = tested on: M19-MEL melanoma
LXFL 529 NSCLC = tested on: LXFL 529 NSCLC
EKVX NSCLC = tested on: EKVX NSCLC
A498 renal = tested on: A498 renal
KM12 colon = tested on: KM12 colon
SF-539 CNS = tested on: SF-539 CNS
CCRF-CEM leukemia = tested on: CCRF-CEM leukemia
RXF-631 renal = tested on: RXF-631 renal
SN12C renal = tested on: SN12C renal
HOP-18 NSCLC = tested on: HOP-18 NSCLC

Compound `CCC[CH2][Sn]1([CH2]CCC)[O]CC(CN2CCCCC2)[O]1` (stereo unspecified) has a GI50 (COLO 205 colon) of 273 nM, a TGI (COLO 205 colon) of 883 nM and a GI50 (ACHN renal) of 269 nM. For the same compound, the TGI (ACHN renal) was 808 nM, the GI50 (UO-31 renal) was 954 nM and the TGI (UO-31 renal) was 2140 nM. For the same compound, the GI50 (DMS 273 small cell lung) was 271 nM, the TGI (DMS 273 small cell lung) was 1250 nM and the GI50 (U251 CNS) was 285 nM. It also gave a TGI (U251 CNS) of 1110 nM, a GI50 (NCI-H23 lung) of 137 nM and a TGI (NCI-H23 lung) of 343 nM. The GI50 (M14 melanoma) was 336 nM, the TGI (M14 melanoma) was 1330 nM and the GI50 (IGROV1 ovarian) was 1120 nM. It also gave a TGI (IGROV1 ovarian) of 2410 nM, a GI50 (TK-10 renal) of 242 nM and a TGI (TK-10 renal) of 897 nM. It also gave a GI50 (DMS 114 small cell lung) of 156 nM, a TGI (DMS 114 small cell lung) of 654 nM and a GI50 (OVCAR-5 ovarian) of 1530 nM. It also gave a TGI (OVCAR-5 ovarian) of 2860 nM, a GI50 (SR leukemia) of 199 nM and a TGI (SR leukemia) of 619 nM. The GI50 (SNB-78 CNS) was 266 nM, the TGI (SNB-78 CNS) was 761 nM and the GI50 (HOP-62 NSCLC) was 1610 nM. The TGI (HOP-62 NSCLC) was 3050 nM, the GI50 (SW-620 colon) was 137 nM and the TGI (SW-620 colon) was 388 nM. The GI50 (HCT-116 colon) was 892 nM, the TGI (HCT-116 colon) was 2130 nM and the GI50 (LOX IMVI melanoma) was 179 nM. For the same compound, the TGI (LOX IMVI melanoma) was 485 nM, the GI50 (XF 498 CNS) was 121 nM and the TGI (XF 498 CNS) was 264 nM. The GI50 (SK-MEL-5 melanoma) was 582 nM, the TGI (SK-MEL-5 melanoma) was 1910 nM and the GI50 (OVCAR-4 ovarian) was 226 nM. It also gave a TGI (OVCAR-4 ovarian) of 1430 nM, a GI50 (RXF 393 renal) of 299 nM and a TGI (RXF 393 renal) of 542 nM. It also gave a GI50 (HL-60(TB) leukemia) of 68.3 nM, a TGI (HL-60(TB) leukemia) of 337 nM and a GI50 (NCI-H226 lung) of 1630 nM. The TGI (NCI-H226 lung) was 3120 nM, the GI50 (SF-295 CNS) was 309 nM and the TGI (SF-295 CNS) was 1320 nM. It also gave a GI50 (SNB-19 CNS) of 330 nM, a TGI (SNB-19 CNS) of 948 nM and a GI50 (OVCAR-8 ovarian) of 283 nM. For the same compound, the TGI (OVCAR-8 ovarian) was 873 nM, the GI50 (NCI-H460 lung) was 1100 nM and the TGI (NCI-H460 lung) was 2290 nM. For the same compound, the GI50 (K-562 leukemia) was 109 nM, the TGI (K-562 leukemia) was 744 nM and the GI50 (MOLT-4 leukemia) was 158 nM. The TGI (MOLT-4 leukemia) was 646 nM, the GI50 (SNB-75 CNS) was 197 nM and the TGI (SNB-75 CNS) was 731 nM. For the same compound, the GI50 (786-0 renal) was 291 nM, the TGI (786-0 renal) was 1010 nM and the GI50 (MALME-3M melanoma) was 62.8 nM. The TGI (MALME-3M melanoma) was 616 nM, the GI50 (OVCAR-3 ovarian) was 271 nM and the TGI (OVCAR-3 ovarian) was 821 nM. It also gave a GI50 (NCI-H522 lung) of 48.7 nM, a TGI (NCI-H522 lung) of 176 nM and a GI50 (CAKI-1 renal) of 51.2 nM. It also gave a TGI (CAKI-1 renal) of 333 nM, a GI50 (HT29 colon) of 569 nM and a TGI (HT29 colon) of 1880 nM. The GI50 (HCT-15 colon) was 460 nM, the TGI (HCT-15 colon) was 1670 nM and the GI50 (KM20L2 colon) was 852 nM. The TGI (KM20L2 colon) was 2210 nM, the GI50 (SK-MEL-28 melanoma) was 685 nM and the TGI (SK-MEL-28 melanoma) was 1930 nM. It also gave a GI50 (UACC-62 melanoma) of 301 nM, a TGI (UACC-62 melanoma) of 1300 nM and a GI50 (SK-OV-3 ovarian) of 1300 nM. It also gave a TGI (SK-OV-3 ovarian) of 2810 nM, a GI50 (HOP-92 NSCLC) of 193 nM and a TGI (HOP-92 NSCLC) of 885 nM. For the same compound, the GI50 (DLD-1 colon) was 394 nM, the TGI (DLD-1 colon) was 1850 nM and the GI50 (RPMI-8226 leukemia) was 136 nM. The TGI (RPMI-8226 leukemia) was 484 nM, the GI50 (SK-MEL-2 melanoma) was 185 nM and the TGI (SK-MEL-2 melanoma) was 422 nM. The GI50 (SF-268 CNS) was 295 nM, the TGI (SF-268 CNS) was 1340 nM and the GI50 (A549 NSCLC) was 1990 nM. For the same compound, the TGI (A549 NSCLC) was 3810 nM, the GI50 (HCC-2998 colon) was 486 nM and the TGI (HCC-2998 colon) was 1870 nM. For the same compound, the GI50 (UACC-257 melanoma) was 309 nM, the TGI (UACC-257 melanoma) was 1050 nM and the GI50 (M19-MEL melanoma) was 477 nM. It also gave a TGI (M19-MEL melanoma) of 1730 nM, a GI50 (LXFL 529 NSCLC) of 76.2 nM and a TGI (LXFL 529 NSCLC) of 263 nM. It also gave a GI50 (EKVX NSCLC) of 284 nM, a TGI (EKVX NSCLC) of 1920 nM and a GI50 (A498 renal) of 276 nM. The TGI (A498 renal) was 785 nM, the GI50 (KM12 colon) was 634 nM and the TGI (KM12 colon) was 2100 nM. For the same compound, the GI50 (SF-539 CNS) was 391 nM, the TGI (SF-539 CNS) was 1500 nM and the GI50 (CCRF-CEM leukemia) was 117 nM. For the same compound, the TGI (CCRF-CEM leukemia) was 600 nM, the GI50 (RXF-631 renal) was 124 nM and the TGI (RXF-631 renal) was 248 nM. It also gave a GI50 (SN12C renal) of 356 nM and a TGI (SN12C renal) of 1430 nM.

For `CCOc1ccc([Se][Se]c2ccc(OCC)cc2)cc1`, the TGI (COLO 205 colon) was > 100000 nM, the TGI (UO-31 renal) was > 100000 nM and the TGI (DMS 273 small cell lung) was > 100000 nM. The TGI (U251 CNS) was 96800 nM, the TGI (NCI-H23 lung) was 54900 nM and the TGI (M14 melanoma) was > 100000 nM. The TGI (IGROV1 ovarian) was > 100000 nM, the TGI (TK-10 renal) was > 100000 nM and the TGI (DMS 114 small cell lung) was > 100000 nM. The TGI (OVCAR-5 ovarian) was > 100000 nM, the TGI (SR leukemia) was > 100000 nM and the TGI (SNB-78 CNS) was > 100000 nM. The TGI (SW-620 colon) was > 100000 nM, the TGI (HCT-116 colon) was > 100000 nM and the TGI (HOP-18 NSCLC) was > 100000 nM. For the same compound, the TGI (OVCAR-4 ovarian) was > 100000 nM, the TGI (RXF 393 renal) was > 100000 nM and the TGI (NCI-H226 lung) was > 100000 nM. The TGI (SF-295 CNS) was > 100000 nM, the TGI (SNB-19 CNS) was > 100000 nM and the TGI (OVCAR-8 ovarian) was > 100000 nM. The TGI (NCI-H460 lung) was > 100000 nM, the TGI (SNB-75 CNS) was > 100000 nM and the TGI (786-0 renal) was > 100000 nM. The TGI (MALME-3M melanoma) was > 100000 nM, the TGI (OVCAR-3 ovarian) was > 100000 nM and the TGI (NCI-H522 lung) was > 100000 nM. The TGI (CAKI-1 renal) was 49600 nM, the TGI (HCT-15 colon) was > 100000 nM and the TGI (KM20L2 colon) was > 100000 nM. For the same compound, the TGI (SK-MEL-28 melanoma) was > 100000 nM, the TGI (UACC-62 melanoma) was > 100000 nM and the TGI (DLD-1 colon) was > 100000 nM. The TGI (RPMI-8226 leukemia) was > 100000 nM, the TGI (SK-MEL-2 melanoma) was > 100000 nM and the TGI (SF-268 CNS) was > 100000 nM. For the same compound, the TGI (A549 NSCLC) was > 100000 nM, the TGI (HCC-2998 colon) was > 100000 nM and the TGI (M19-MEL melanoma) was > 100000 nM. For the same compound, the TGI (LXFL 529 NSCLC) was > 100000 nM, the TGI (EKVX NSCLC) was > 100000 nM and the TGI (KM12 colon) was > 100000 nM. The TGI (SF-539 CNS) was > 100000 nM, the TGI (RXF-631 renal) was > 100000 nM and the TGI (SN12C renal) was > 100000 nM.
